Measurements reported in US20080027006A1 (priority 2004, published 2008).
Values after ≈ are worked out from the molar mass of the structure shown.

Tests used:
physchem = settings: pH 7
[1] = pH 7
[2] = format: physicochemical; settings: pH 7

Structure (SMILES)	[θ]222, Benign [2]	also measured
CC[C@H](C)[C@H](NC(=O)[C@H](CCC(N)=O)NC(=O)[C@H](CO)NC(=O)[C@@H](NC(=O)[C@H](C)NC(=O)[C@H](CCCCN)NC(=O)[C@H](CC(N)=O)NC(=O)[C@H](Cc1ccccc1)NC(=O)[C@H](CCC(N)=O)NC(=O)[C@H](CC(N)=O)NC(=O)[C@H](C)NC(=O)[C@@H](NC(=O)[C@H](CCC(N)=O)NC(=O)[C@H](CCCCN)NC(=O)[C@H](CCC(N)=O)NC(=O)[C@H](CC(N)=O)NC(=O)[C@H](CCC(=O)O)NC(=O)[C@H](Cc1ccc(O)cc1)NC(=O)[C@H](CC(C)C)NC(=O)[C@@H](NC(=O)[C@H](CC(N)=O)NC(=O)[C@H](CCC(N)=O)NC(=O)[C@@H](NC(=O)[C@@H](NC(=O)CNC(=O)[C@@H](NC(=O)CNC(=O)[C@H](CC(N)=O)NC(=O)[C@H](Cc1ccccc1)NC(=O)[C@H](CCCNC(=N)N)NC(=O)[C@H](Cc1ccc(O)cc1)NC(=O)[C@H](C)NC(=O)[C@H](CCSC)NC(=O)[C@H](CCC(N)=O)NC(=O)[C@H](CCSC)NC(C)=O)[C@@H](C)CC)C(C)C)[C@@H](C)O)C(C)C)[C@@H](C)CC)[C@@H](C)CC)C(N)=O [HR-N5]	−4,300 degrees · cm^2 · dmol^−1	solubility (physchem): 15 µM (≈ 61.5 µg/mL); solubility (in words) [1]: largely insoluble; No. Helical Residues, 50% TFE [2]: 24; [θ]222, 50% TFE [2]: −24,200 degrees · cm^2 · dmol^−1
CC[C@H](C)[C@H](NC(=O)CNC(=O)[C@H](CC(N)=O)NC(=O)[C@H](Cc1ccccc1)NC(C)=O)C(=O)NCC(=O)N[C@H](C(=O)N[C@H](C(=O)N[C@@H](CCC(N)=O)C(=O)N[C@@H](CC(N)=O)C(=O)N[C@H](C(=O)N[C@@H](CC(C)C)C(=O)N[C@@H](Cc1ccc(O)cc1)C(=O)N[C@@H](CCC(=O)O)C(=O)N[C@@H](CC(N)=O)C(=O)N[C@@H](CCC(N)=O)C(=O)N[C@@H](CCCCN)C(=O)N[C@@H](CCC(N)=O)C(=O)N[C@H](C(=O)N[C@@H](C)C(=O)N[C@@H](CC(N)=O)C(=O)N[C@@H](CCC(N)=O)C(=O)N[C@@H](Cc1ccccc1)C(=O)N[C@@H](CC(N)=O)C(=O)N[C@@H](CCCCN)C(=O)N[C@@H](C)C(=O)N[C@H](C(=O)N[C@@H](CO)C(=O)N[C@@H](CCC(N)=O)C(=O)N[C@H](C(=O)N[C@@H](CCC(N)=O)C(=O)N[C@@H](CCC(=O)O)C(=O)N[C@@H](CO)C(=O)N[C@@H](CC(C)C)C(=O)N[C@H](C(=O)N[C@H](C(N)=O)[C@@H](C)O)[C@@H](C)O)[C@@H](C)CC)[C@@H](C)CC)[C@@H](C)CC)C(C)C)[C@@H](C)O)C(C)C [HR-N6]	−3,300 degrees · cm^2 · dmol^−1	
CC[C@H](C)[C@H](NC(=O)[C@H](C)NC(=O)[C@H](CCCCN)NC(=O)[C@H](CC(N)=O)NC(=O)[C@H](Cc1ccccc1)NC(=O)[C@H](CCC(N)=O)NC(=O)[C@H](CC(N)=O)NC(=O)[C@H](C)NC(=O)[C@@H](NC(=O)[C@H](CCC(N)=O)NC(=O)[C@H](CCCCN)NC(=O)[C@H](CCC(N)=O)NC(=O)[C@H](CC(N)=O)NC(=O)[C@H](CCC(=O)O)NC(=O)[C@H](Cc1ccc(O)cc1)NC(=O)[C@H](CC(C)C)NC(=O)[C@@H](NC(=O)[C@H](CC(N)=O)NC(=O)[C@H](CCC(N)=O)NC(C)=O)C(C)C)[C@@H](C)CC)C(=O)N[C@@H](CO)C(=O)N[C@@H](CCC(N)=O)C(=O)N[C@H](C(=O)N[C@@H](CCC(N)=O)C(=O)N[C@@H](CCC(=O)O)C(=O)N[C@@H](CO)C(=O)N[C@@H](CC(C)C)C(=O)N[C@H](C(=O)N[C@H](C(=O)N[C@H](C(=O)N[C@@H](CO)C(=O)N[C@H](C(=O)N[C@@H](C)C(=O)N[C@@H](CC(C)C)C(=O)NCC(=O)N[C@@H](CCCCN)C(N)=O)[C@@H](C)O)[C@@H](C)O)[C@@H](C)O)[C@@H](C)O)[C@@H](C)CC [HR-N7]	−2,800 degrees · cm^2 · dmol^−1	
CC[C@H](C)[C@H](NC(=O)[C@H](C)NC(=O)[C@H](CCCCN)NC(=O)[C@H](CC(N)=O)NC(=O)[C@H](Cc1ccccc1)NC(=O)[C@H](CCC(N)=O)NC(=O)[C@H](CC(N)=O)NC(=O)[C@H](C)NC(=O)[C@@H](NC(=O)[C@H](CCC(N)=O)NC(=O)[C@H](CCCCN)NC(=O)[C@H](CCC(N)=O)NC(C)=O)[C@@H](C)CC)C(=O)N[C@@H](CO)C(=O)N[C@@H](CCC(N)=O)C(=O)N[C@H](C(=O)N[C@@H](CCC(N)=O)C(=O)N[C@@H](CCC(=O)O)C(=O)N[C@@H](CO)C(=O)N[C@@H](CC(C)C)C(=O)N[C@H](C(=O)N[C@H](C(=O)N[C@H](C(=O)N[C@@H](CO)C(=O)N[C@H](C(=O)N[C@@H](C)C(=O)N[C@@H](CC(C)C)C(=O)NCC(=O)N[C@@H](CCCCN)C(=O)N[C@@H](CC(C)C)C(=O)N[C@@H](CCC(N)=O)C(=O)N[C@@H](CC(=O)O)C(=O)N[C@H](C(=O)N[C@H](C(=O)N[C@@H](CC(N)=O)C(=O)N[C@@H](CCC(N)=O)C(N)=O)C(C)C)C(C)C)[C@@H](C)O)[C@@H](C)O)[C@@H](C)O)[C@@H](C)O)[C@@H](C)CC [HR-N8]	−2,500 degrees · cm^2 · dmol^−1	
CC[C@H](C)[C@H](NC(=O)[C@H](C)NC(=O)[C@H](CCCCN)NC(=O)[C@H](CC(N)=O)NC(=O)[C@H](Cc1ccccc1)NC(C)=O)C(=O)N[C@@H](CO)C(=O)N[C@@H](CCC(N)=O)C(=O)N[C@H](C(=O)N[C@@H](CCC(N)=O)C(=O)N[C@@H](CCC(=O)O)C(=O)N[C@@H](CO)C(=O)N[C@@H](CC(C)C)C(=O)N[C@H](C(=O)N[C@H](C(=O)N[C@H](C(=O)N[C@@H](CO)C(=O)N[C@H](C(=O)N[C@@H](C)C(=O)N[C@@H](CC(C)C)C(=O)NCC(=O)N[C@@H](CCCCN)C(=O)N[C@@H](CC(C)C)C(=O)N[C@@H](CCC(N)=O)C(=O)N[C@@H](CC(=O)O)C(=O)N[C@H](C(=O)N[C@H](C(=O)N[C@@H](CC(N)=O)C(=O)N[C@@H](CCC(N)=O)C(=O)N[C@@H](CC(N)=O)C(=O)N[C@@H](C)C(=O)N[C@@H](CCC(N)=O)C(=O)N[C@@H](C)C(=O)N[C@@H](CC(C)C)C(=O)N[C@@H](CC(N)=O)C(=O)N[C@H](C(N)=O)[C@@H](C)O)C(C)C)C(C)C)[C@@H](C)O)[C@@H](C)O)[C@@H](C)O)[C@@H](C)O)[C@@H](C)CC [HR-N9]	−2,800 degrees · cm^2 · dmol^−1	
CC[C@H](C)[C@H](NC(C)=O)C(=O)N[C@@H](CCC(N)=O)C(=O)N[C@@H](CCC(=O)O)C(=O)N[C@@H](CO)C(=O)N[C@@H](CC(C)C)C(=O)N[C@H](C(=O)N[C@H](C(=O)N[C@H](C(=O)N[C@@H](CO)C(=O)N[C@H](C(=O)N[C@@H](C)C(=O)N[C@@H](CC(C)C)C(=O)NCC(=O)N[C@@H](CCCCN)C(=O)N[C@@H](CC(C)C)C(=O)N[C@@H](CCC(N)=O)C(=O)N[C@@H](CC(=O)O)C(=O)N[C@H](C(=O)N[C@H](C(=O)N[C@@H](CC(N)=O)C(=O)N[C@@H](CCC(N)=O)C(=O)N[C@@H](CC(N)=O)C(=O)N[C@@H](C)C(=O)N[C@@H](CCC(N)=O)C(=O)N[C@@H](C)C(=O)N[C@@H](CC(C)C)C(=O)N[C@@H](CC(N)=O)C(=O)N[C@H](C(=O)N[C@@H](CC(C)C)C(=O)N[C@H](C(=O)N[C@@H](CCCCN)C(=O)N[C@@H](CCC(N)=O)C(=O)N[C@@H](CC(C)C)C(=O)N[C@@H](CO)C(=O)N[C@@H](CO)C(N)=O)C(C)C)[C@@H](C)O)C(C)C)C(C)C)[C@@H](C)O)[C@@H](C)O)[C@@H](C)O)[C@@H](C)O [HR-N10]	−3,600 degrees · cm^2 · dmol^−1	
CC[C@H](C)[C@H](NC(=O)[C@H](C)NC(=O)CNC(=O)[C@H](Cc1ccccc1)NC(=O)[C@H](CC(N)=O)NC(=O)[C@H](CO)NC(=O)[C@H](CO)NC(=O)[C@H](CC(C)C)NC(=O)[C@H](CCC(N)=O)NC(=O)[C@H](CCCCN)NC(=O)[C@@H](NC(=O)[C@H](CC(C)C)NC(=O)[C@@H](NC(=O)[C@H](CC(N)=O)NC(=O)[C@H](CC(C)C)NC(=O)[C@H](C)NC(=O)[C@H](CCC(N)=O)NC(=O)[C@H](C)NC(=O)[C@H](CC(N)=O)NC(=O)[C@H](CCC(N)=O)NC(=O)[C@H](CC(N)=O)NC(=O)[C@@H](NC(=O)[C@@H](NC(=O)[C@H](CC(=O)O)NC(=O)[C@H](CCC(N)=O)NC(=O)[C@H](CC(C)C)NC(=O)[C@H](CCCCN)NC(=O)CNC(=O)[C@H](CC(C)C)NC(=O)[C@H](C)NC(=O)[C@@H](NC(=O)[C@H](CO)NC(=O)[C@@H](NC(C)=O)[C@@H](C)O)[C@@H](C)O)C(C)C)C(C)C)[C@@H](C)O)C(C)C)C(=O)N[C@@H](CO)C(=O)N[C@@H](CO)C(N)=O [HR-N11]	−3,200 degrees · cm^2 · dmol^−1	
